Experimental findings from US20200030388A1, “COMPOSITIONS FOR MODIFYING GUT MICROBIOTA” (priority 2017, published 2020) are described below.

Marks after values point to notes of the source that are not given here.

Data set [1] deals with Gut Microbiota in HFD-Fed Mice. Put plainly: Gut microbiota classification by next generation sequencing (Example 4). It counts as in vivo, mouse. As for the experimental part:
Total DNA was extracted from fresh fecal samples by using the innuPREP Stool DNA kit (Analytik Jena AG, Jena, Germany) according to the manufacturer's instructions. According to the concentration, DNA was diluted to 1 ng μ L^−1 using sterile water. 6SrRNA/18SrRNA/ITS genes of distinct region (16SV4/16SV3/16SV3-V4/16SV4-V5, 18S V4/18S V9, ITS1/ITS2, Arc V4) were amplified using a specific primer (e.g. 16SV4: 515F-806R, 18S V4: 528F-706R, and 18S V9: 1380F-1510R) with a barcode. All PCR reactions were carried out using a Phusion® High-Fidelity PCR master mix (New England Biolabs, Ipswich, Mass., USA). The PCR products were mixed in ratios of equal density. Then, the mixed PCR products were purified using a Qiagen gel extraction kit (Qiagen, Hilden, Germany). Sequencing libraries were generated using the TruSeq® DNA PCR-free sample preparation kit (Illumina, San Diego, Calif., USA) following the manufacturer's recommendations, and index codes were added. The library quality was assessed using the Qubit@ 2.0 Fluorometer (Thermo Scientific) and Agilent Bioanalyzer 2100 system. Lastly, the library was sequenced using an Illumina HiSeq 2500 platform, and 250 bp paired-end reads were generated. The classification was based on the Greengenes database (https://greengenes.lbl.gov/).

Data set [2] has as its system HFD-induced Obesity in C57BL/6 mice. In words: HFD-induced obesity in C57BL/6 mice, 13 weeks (Example 2). It counts as in vivo, mouse. The settings on record: for GPT / HDL / LDL / LDL/HDL / T-CHO / TG: plasma; for percentage frequency of adipocytes, Adipocyte Size area 2000 / percentage frequency of adipocytes, Adipocyte Size area 15000 / percentage frequency of adipocytes, Adipocyte Size area >350000: perigonadal adipose tissue. From the text: After one week of acclimation, animals were randomly distributed into normal diet (ND, 15% energy as fat), HFD (50% energy as fat), and HFD with 0.1% or 0.5% garcinol groups of eight mice in each group for 13 weeks. The experimental diets were modified from the Purina 5001 diet (LabDiet, PMI Nutrition International, St. Louis, Mo., USA). The animals had ad libitum access to food and water. Food cups were replenished with a fresh diet every day. […] Upon termination of the study, the animals were sacrificed by CO2 asphyxiation and dissected, and the weights of their whole bodies and selected tissues, including the liver, kidney, spleen, adipose tissues (perigonadal, retroperitoneal, and mesenteric fat) and serum were immediately collected, weighed, and photographed.
Sections of 3-5 μm in thickness were cut, deparaffinized, rehydrated, stained with H&E, and subjected to photomicroscopic assessment. Adipocyte size was determined using Image J software (Rasband, W. S., ImageJ, U.S. National Institutes of Health, Bethesda, Md., USA).
Blood samples were collected from the left ventricle under anesthesia. The samples were mixed in 10 μL of heparin sodium and centrifuged at 3500 rpm and 4° C. for 10 min. The plasma was then stored at −80° C. until use. Glutamic-pyruvic transaminase (GPT), total cholesterol (TC), TG, high-density lipoprotein (HDL), and low-density lipoprotein (LDL) levels were analyzed at the National Laboratory Animal Center, NLAC (Taipei, Taiwan) on a 7080 Biochemical Analyzer (Hitachi, Tokyo, Japan) according to the manufacturer's instructions.

For the compound `C=C(C)[C@@H](CC=C(C)C)C[C@@]12C[C@@H](CC=C(C)C)C(C)(C)[C@@](CC=C(C)C)(C(=O)C(C(=O)c3ccc(O)c(O)c3)=C1O)C2=O` [garcinol], in data set [1] (12 weeks (HFD group 43.0%)), the “abundance of Firmicutes” value was found to be 33.9%. For the same compound, the “abundance of Bacteroidetes” value in data set [1] (12 weeks (HFD group 50.2%)) amounted to 62.4%. Also, the “OTUs difference between ND and HFD groups (Venn diagram)” value in data set [1] (12 weeks, FIG. 23A) is given as 26 OTUs. Besides, in data set [2] (0.5% garcinol, HFD, 13 weeks), the “decrease of mesenteric fat weight compared to the HFD group” value was 77.7%, the “decrease of perigonadal fat weight compared to the HFD group” value was determined as 85.1% and the “decrease of retroperitoneal fat weight compared to the HFD group” value is 92.4%. In data set [2] (HFD + 0.1% Gar), the GPT is listed as 20.5 ± 7.26^b U/L, the HDL is 152.6 ± 9.73^a mg/dL, the LDL was 33.3 ± 0.72^b mg/dL and the LDL/HDL is 0.22 ± 0.02^b. In addition, in data set [2] (HFD + 0.1% Gar), the T-CHO is 179.7 ± 11.85^b mg/dL and the TG is reported as 69.6 ± 19.90^ab mg/dL. In addition, in data set [2] (HFD + 0.1% garcinol), the “percentage frequency of adipocytes, Adipocyte Size area 2000” value is reported as 8.38 ± 5.3^b; the “percentage frequency of adipocytes, Adipocyte Size area 15000” value is reported as 4.03 ± 1.0^a; the “percentage frequency of adipocytes, Adipocyte Size area >350000” value is 3.32 ± 1.5^b. In data set [2] (HFD + 0.5% Gar), the GPT is reported as 27.6 ± 3.72^ab U/L, the HDL was 118.7 ± 13.22^b mg/dL, the LDL is 24.9 ± 4.47^c mg/dL and the LDL/HDL is 0.21 ± 0.03^b. Also, in data set [2] (HFD + 0.5% Gar), the T-CHO is 137.9 ± 11.78^c mg/dL and the TG is 55.6 ± 4.95^b mg/dL. In data set [2] (HFD + 0.5% garcinol), the “percentage frequency of adipocytes, Adipocyte Size area 2000” value is reported as 19.2 ± 3.9^a; the “percentage frequency of adipocytes, Adipocyte Size area 15000” value is given as 1.36 ± 0.9^b; the “percentage frequency of adipocytes, Adipocyte Size area >350000” value was 0.00 ± 0.0^c.
